Structures are written as SMILES. Like-named read-outs stand apart in the source and are kept apart here.

For experiment [1], the system named is Methylmalonic Acidemia (MMA) primary fibroblasts Tsi 5224. In words: Mitochondrial respiration, XFe96 Extracellular Flux Analyzer (OCR/ECAR), MMA fibroblasts Tsi 5224.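 For Increase in Maximal Respiratory Capacity AUC: relative to vehicle DMSO control.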 Type of experiment: cell-based. As to conditions: Homo sapiens, Fibroblast. As for the experimental part: The effect of the compounds of the present disclosure on mitochondrial respiration was measured with a XFe96 Extracellular Flux Analyzer (Seahorse Bioscience, Agilent Technologies) and Oxygen consumption Rate (OCR) and Extracellular acidification rate (ECAR) determined.
Cell culture and treatments. Primary adherent fibroblasts were cultured in minimum essential medium (MEM) (Gibco, 25030081) supplemented with 2 mM L-Glutamine (Gibco, 25030081), 15% fetal bovine serum (FBS) (Gibco, 26400044) and 1% penicillin/streptomycin (Gibco, 5140122) at 37° C. and 5% CO2. Cells were collected for either passaging or experiment at ˜70-80% confluence. Cells were obtained by trypsinization and seeded at 20000 cells/well in cell culture microplates (Seahorse Bioscience, 101085-004) and allowed to adhere for 16 hours in culture media.
By profiling different primary cells and/or optimizing their culture media or environmental components one can select cell lines and/or conditions that are appropriate for the biological or disease model. In the present example, 24 hours prior to OCR and ECAR profiling, media was changed to Dulbecco's Modified Eagle Medium (DMEM, Agilent Seahorse 103575-100) with the appropriate supplements for the different primary cells (10 mM glucose, 2 mM L-glutamine, 1 mM pyruvate, 10% FBS; 1 mM glucose, 2 mM L-glutamine, 1 mM pyruvate, 10% FBS; 10 mM glucose, 10% FBS; 5 mM glucose 10% FBS; 1 mM glucose 10% FBS). Cells used in this example were: Propionic Acidemia (PA) (GM00371, GM03590 Coriell Institute for Medical Research, Tsi 6337, Tsi 4626, Tsi 3618 Trans-Hit Bio), Methylmalonic Acidemia (MMA) (GM01673, Coriell Institute for Medical Research, Tsi 5224 Trans-Hit Bio), Branched chain ketoacid dehydrogenase kinase (BCKDK) (GM00612, GM00649 Coriell Institute for Medical Research), Subnormal activation of pyruvate dehydrogenase complex (PDH) (GM01503 Coriell Institute for Medical Research), Very long-chain acyl-CoA dehydrogenase (VLCAD) (GM17475), Leigh Syndrome (LS) (GM03672, GM13411 Coriell Institute for Medical Research), Pyruvate Carboxylase Deficiency (PC) (GM00444 Coriell Institute for Medical Research), Glutaric Acidemia-I (GA) (GM10653), Friedreich's Ataxia (FXN) (GM04078 Coriell Institute for Medical Research, Huntington's disease (HD) (GM21756 Coriell Institute for Medical Research), Ornithine Transcarbamylase Deficiency (OTC) (GM12756 Coriell Institute for Medical Research), Kearns-Sayre Syndrome (KSS) (GM06225 Coriell Institute for Medical Research).
One hour before the assay, the cells were washed with freshly prepared unbuffered serum free-Seahorse XF Assay medium (Seahorse Bioscience, North America, USA, 103575-100) with the same supplements as for the previous 24 hour incubation.
After baseline measurements of OCR, cells were challenged with compounds of the present disclosure at different concentrations (10 to 50 μM) or vehicle (DMSO, 0.1%) and a post-compound baseline was recorded. OCR was measured after sequentially adding to each well 1 μg/ml oligomycin (inhibitor of ATP synthase Sigma-Aldrich, 753531), then maximal OCR was determined with carbonyl cyanide 4-(trifluoromethoxy) phenylhydrazone (FCCP, Sigma-Aldrich, C2920), (uncoupler of oxidative phosphorylation) and 0.5 μM of rotenone (Sigma-Aldrich, R8875) plus antimycin A (Sigma-Aldrich, A8674) (inhibitors of mitochondrial complex I and III) for determination of rotenone-antimycin insensitive respiration together with Hoechst for nuclear staining in situ when normalized to cell counts. After the analysis and nuclear staining, the XFp microplate was transferred to the Cytation 5, and the nuclear images were captured, the individual nuclei were identified and counted by BioTek Gen5 software. Data were expressed as pmol of O2 per minute and normalized by nuclear staining and baselined to pre-compound addition.
Assay conditions were as stated below.
Assay specifics on assay conditions are indicated below when readouts were normalized to cell counts. […]

Experiment [2] has as its system primary fibroblasts (healthy controls and PA, MMA, BCKDK, PDH, VLCAD, LS, PC, GA, VLCFA, KSS, FXN, HD). In words: Measurement of ROS (H2DCFDA) in primary fibroblasts. In kind it is cell-based, human. As to conditions: Homo sapiens, procedure Example 812, Assay Condition C. The procedure:
Primary adherent fibroblasts were cultured in minimum essential medium (MEM) (Gibco, 25030081) supplemented with 2 mM L-Glutamine (Gibco, 25030081), 15% fetal bovine serum (FBS) (Gibco, 26400044) and 1% penicillin/streptomycin (Gibco, 5140122) at 37° C. and 5% CO2. Cells were collected for either passaging or experiment at ˜70-80% confluence. Cells were obtained by trypsinization and seeded in cell culture microplates either white plate (Thermo Fisher Scientific, 152028) for luminescent measurement or black plate (Thermo Fisher Scientific, 165305) for fluorescent based read out for different assays listed below. Cells were obtained by trypsinization and […] were seeded and allowed to adhere for 16-18 hours to have confluency around 70-80% in the cell well with culture media. After 24 hours prior to measurements (37° C., 5% CO2) media was changed to Dulbecco's Modified Eagle Medium (DMEM, Agilent Seahorse cat #103575-100) with the appropriate supplements as stated below.
Primary fibroblasts assayed were Healthy controls (GM00041, GM05659, GM23974 Coriell Institute for Medical Research), Propionic Acidemia (PA) (GM00371, GM03590 Coriell Institute for Medical Research, Tsi 6337 Trans-Hit Bio), Methylmalonic Acidemia (MMA) (GM01673, Coriell Institute for Medical Research, Tsi 5224, Tsi 4290 Trans-Hit Bio), Branched chain ketoacid dehydrogenase kinase (BCKDK) (GM00612, GM00649 Coriell Institute for Medical Research), Subnormal activation of pyruvate dehydrogenase complex (PDH) (GM01503 Coriell Institute for Medical Research), Very long-chain acyl-CoA dehydrogenase (VLCAD) (GM17475), Leigh Syndrome (LS) (GM03672, GM13411 Coriell Institute for Medical Research), Pyruvate Carboxylase Deficiency (PC) (GM00444 Coriell Institute for Medical Research), Glutaric Acidemia-I (GA), Impaired VLCFA oxidation (VLCFA) (GM13262), Kearns-Sayre Syndrome (KSS) (GM06225 Coriell Institute for Medical Research), Friedreich's Ataxia (FXN), Huntington's disease (HD) (GM21756 Coriell Institute for Medical Research). Next, cells were treated with compounds (10 μM) and ROS H2DCFDA (22 μM) dye for 2 hours in PA, MMA lines and for 24h for the other fibroblast lines. Kinetic read was started immediately with a i3x plate reader (492/527 nm) for 60 minutes.
A total dead cell count was performed as described in Example 817 and only alive cells were used for analysis.

In experiment [3] the test system is monocyte-derived M1 macrophages. The experiment in a line: M1 differentiation assay (macrophage TNFα, IL6, IL10 ELISA, FACS). In kind it is cell-based, human. The procedure:
Monocytes were isolated by positive isolation with CD14+ microbeads (Miltenyi, 130-050-201). Monocytes were 99% viable and were 96% purity as analyzed by FACS and CD14+ (BD, 563561). 100,000 monocytes along with compounds at the dose of 10 and 50 μM were allowed to differentiate to macrophages with 10 ng/ml GMCSF (R&D, 15-GM-050/CF) in RPMI complete media (Invitrogen, 22400089) with 15% FBS (Hyclone SV30087.03) and 1% Penicillin-Streptomycin (Gibco, 15140-122). On day 2 and 4 half the media was refreshed with fresh GM-CSF and compounds at 10 and 50 μM dose. On day 6 the macrophages were matured with GMCSF, IFNγ (R&D 285-IF-100/CF) and LPS (Sigma, L6143) in the presence of 10 μM and 50 μM of compounds. After 24h, supernatant was collected for the measurement of TNFα (DKW, 1117202) IL6 (DKW, 1110602), IL10 (DKW, 1110003) by ELISA. Macrophages were detached gently on ice with EDTA (Invitrogen, 15575-038) and analyzed by FACS (BD LSR Fortessa, 853492). Cells were stained for live/dead dye, surface and intracellular markers with fixation/permeabilization solution (BD, 554714) and ALIVE/DEAD™ Fixable Near-IR Dead Cell Stain Kit (BD, L34976), mouse anti human CD86 APC (BD, 555660), mouse anti-human CD163 PE (BD, 556018), mouse anti-human CD68 FITC (BD, 562117) or isotype controls anti-mouse IgG1 κ PE (BD, 559320) and anti-mouse IgG1 κ APC (BD, Anti mouse IgG1 κ APC (BD, 55571). Mature M1 macrophages were defined as CD86+CD68+CD163− and increase in TNFα, IL6, and decrease in IL-10.
(In general: In an ELISA, binding on a coated surface is turned into a signal by an enzyme label.)

For experiment [4], the system named is Propionic Acidemia (PA) primary fibroblasts GM00371. The experiment in a line: Mitochondrial respiration, XFe96 Extracellular Flux Analyzer (OCR/ECAR), PA fibroblasts GM00371. In kind it is cell-based. As to conditions: Homo sapiens, Fibroblast, assay condition C (10 mM glucose, 10% FBS), 50 μM, read-out: Increase in Maximal Respiratory Capacity AUC.
[5] abbreviates: MMA Tsi 5224, assay condition A (10 mM glucose, 2 mM L-glutamine, 1 mM pyruvate, 10% FBS), read-out: Increase in Maximal Respiratory Capacity AUC.
The mark [6] stands for this setting: MMA Tsi 5224, assay condition D (1 mM glucose, 10% FBS), read-out: Increase in Maximal Respiratory Capacity AUC.
[7] abbreviates: FXN GM04078, read-out: Decreased ROS by at least 10%.
[8] abbreviates: FXN GM04078, read-out: Decreased ROS by at least 30%.
The mark [9] stands for this setting: Fibroblast, PC GM00444, read-out: Decreased ROS by at least 10%.
[10] abbreviates: Fibroblast, PC GM00444, read-out: Decreased ROS by at least 30%.

Take `COC(=O)C(=O)SCCNC(=O)CCNC(=O)[C@H](O)C(C)(C)CO` [Compound 30, Methyl (R)-2-((2-(3-(2,4-dihydroxy-3,3-dimethylbutanamido)propanamido)ethyl)thio)-2-oxoacetate]: in experiment [1] (setting [5]), the activation at 10 µM is at least 10%.
For `CC(C)(C)OC(=O)N[C@@H](CC(=O)SCCNC(=O)CCNC(=O)[C@H](O)C(C)(C)CO)C(=O)OC(C)(C)C` [Compound 1318], in experiment [1] (MMA Tsi 5224, assay condition B (1 mM glucose, 2 mM L-glutamine, 1 mM pyruvate, 10% FBS), read-out: Increase in Spare Capacity AUC), the activation at 10 µM was at least 10%.
Consider `CC(C)(COC(=O)CCC(=O)O)[C@@H](O)C(=O)NCCC(=O)NCCSC(=O)CCC(=O)O` [Compound 1232], for which the activation at 10 µM in experiment [1] (setting [5]) and in experiment [1] (setting [6]) was at least 10% throughout. Further, the inhibition at 10 µM was at least 10% in experiment [2] (Fibroblast, VLCFA GM13262, read-out: Decreased ROS by at least 10%); at least 30% in experiment [2] (Fibroblast, VLCFA GM13262, read-out: Decreased ROS by at least 30%); at least 10% in experiment [2] (setting [7]); at least 30% in experiment [2] (setting [8]).
As to `COC(=O)CC(SCCNC(=O)CCNC(=O)[C@H](O)C(C)(C)COP(=O)(O)O)C(=O)OC` (stereo partly drawn) [Compound 86, dimethyl 2-((2-(3-((R)-2-hydroxy-3,3-dimethyl-4-(phosphonooxy)butanamido)propanamido)ethyl)thio)succinate], in experiment [1] (setting [6]), the activation at 10 µM was at least 10%. The “% Increase in Live Macrophage Cells” value in experiment [3] (10 uM) is at least 20%.
`COC(=O)CCC(=O)CC(=O)SCCNC(=O)CCNC(=O)[C@H](O)C(C)(C)CO` [Compound 5, methyl 6-[(2-[3-[(2R)-2,4-dihydroxy-3,3-dimethylbutanamido]propanamido]ethyl)sulfanyl]-4,6-dioxo-hexanoate]: the activation at 50 µM in experiment [4] was at least 10%.
In the case of `COC(=O)[C@@H](N)CC(=O)SCCNC(=O)CCNC(=O)[C@H](O)C(C)(C)CO` [Compound 415], the activation at 10 µM in experiment [1] (MMA Tsi 5224, assay condition D (1 mM glucose, 10% FBS), read-out: Increase in Spare Capacity AUC) was at least 10%; in experiment [3] (Homo sapiens, Macrophage, 10 uM, read-out: % Increase in IL-10 Secretion), at least 30%. Also, the “% decrease in Live Macrophage Cells” value in experiment [3] (50 uM) is reported as at least 20%. The inhibition at 10 µM was at least 30% in experiment [3] (Homo sapiens, Macrophage, 10 uM, read-out: % decrease in Macrophage IL-6 Secretion) and at least 30% in experiment [3] (Homo sapiens, Macrophage, 10 uM, read-out: % decrease in Macrophage TNFα Secretion).
Regarding `CC(=O)C(C)C(=O)SCCNC(=O)CCNC(=O)[C@H](O)C(C)(C)CO` (stereo partly drawn) [Compound 396, (2R)-2,4-dihydroxy-3,3-dimethyl-N-[2-([2-[(2-methyl-3-oxobutanoyl)sulfanyl]ethyl]carbamoyl)ethyl]butanamide], the activation at 50 µM in experiment [4] was at least 10%. Further, the figures for the inhibition at 10 µM in experiment [2] (setting [9]) and in experiment [2] (setting [10]) were at least 10% and at least 30%, respectively.
For `CC(O)CC(=O)CC(=O)CC(=O)SCCNC(=O)CCNC(=O)[C@H](O)C(C)(C)CO` (stereo partly drawn) [Compound 379], in experiment [2] (setting [7]), the inhibition at 10 µM is at least 10%.
`COC(=O)[C@@H](N)CCC(=O)SCCNC(=O)CCNC(=O)[C@H](O)C(C)(C)CO` [Compound 412, methyl (2S)-2-amino-5-[(2-[3-[(2R)-2,4-dihydroxy-3,3-dimethylbutanamido]propanamido]ethyl)sulfanyl]-5-oxopentanoate]: the inhibition at 10 µM in experiment [2] (setting [9]) is at least 10%; in experiment [2] (setting [10]), at least 30%; in experiment [2] (setting [7]), at least 10%; in experiment [2] (setting [8]), at least 30%.

The values above are taken from patent publication US20230107216A1, “PANTETHEINE DERIVATIVES AND USES THEREOF” (Comet Therapeutics, Inc., priority 2018, published 2023).
